Test [1] has as its system Trichoplusia ni. The test is described as follows: Toxicity against Trichoplusia ni (cabbage looper) third-instar larvae stage assessed as mortality at 10 ug/ml for 24 hr by topical application. Format: functional.
Test [2] concerns Trichoplusia ni. The test is described as follows: Antifeedant activity against Trichoplusia ni (cabbage looper) third-instar larvae stage assessed as concentrations causing 50% feeding deterrence by feeding deterrent bioassay. Format: functional, organism-based.
For test [3], the system named is Trichoplusia ni. Briefly: Antifeedant activity against Trichoplusia ni (cabbage looper) third-instar larvae stage assessed as feeding deterrence index at 50 microg/cm'2 by feeding deterrent bioassay. Format: functional.
Test [4] concerns Trichoplusia ni. Briefly: Protection of intact cabbage plants from Trichoplusia ni (cabbage looper) measured as leaf area consumed by lopper in green house for 10 days (reference value: 8.5 cm'2). Format: functional.
Test [5] concerns Trichoplusia ni. The test is described as follows: Protection of intact cabbage plants from Trichoplusia ni (cabbage looper) measured as reduction in weight of larvae by lopper in green house for 10 days (reference value: 33.8 mg). Format: functional.

For the molecule `O=C1C=Cc2ccccc2C1=O` [1,2-NAPHTHOQUINONE], the mortality at 10 µg/mL with Trichoplusia ni [1] came out at 3.3%. Moreover, in the test with Trichoplusia ni [2], the DC50 is reported as 1.8 microg/cm2. For the same molecule, the FDI in the test with Trichoplusia ni [3] came out at 100%.
With `O=C1c2ccccc2C(=O)c2c(O)cccc21` [1-HYDROXYANTHRAQUINONE], in the test on Trichoplusia ni [1], the mortality at 10 µg/mL was 10%. The FDI in the test on Trichoplusia ni [3] was -41.5%.
Turning to `c1ccc2c(c1)ccc1cccnc12` [1-NAPHTHOQUINOLINE], the mortality at 10 µg/mL in the test on Trichoplusia ni [1] turned out to be 10%. For the same molecule, the DC50 in the test with Trichoplusia ni [2] is listed as 16.4 microg/cm2. Besides, the FDI in the test with Trichoplusia ni [3] is 75.7%.
For `O=C1C(Br)=C(Br)C(=O)c2ccccc21` [2,3-Dibromo-1,4-naphthoquinone], in that order: 10%, 26.4 microg/cm2 and 100%.
For `O=C1C=C(Br)C(=O)c2ccccc21` [2-Bromo-1,4-naphthoquinone], the mortality at 10 µg/mL in the test with Trichoplusia ni [1] stood at 15%. For the same molecule, the DC50 in the test with Trichoplusia ni [2] amounted to 8.4 microg/cm2. In addition, the FDI with Trichoplusia ni [3] is on record as 80.7%.
For `O=C1C(Cl)=C(N2CCOCC2)C(=O)c2ccccc21` [2-Chloro-3-morpholino-1,4-naphthoquinone] the same measures were 12%, 9.7 microg/cm2 and 100%.
For `COC1=CC(=O)c2ccccc2C1=O` [2-Methoxy-1,4-naphthoquinone], in that order: 8%, 2.6 microg/cm2 and 96.8%.
For the molecule `O=C1C(=O)c2ccccc2-c2ccccc21` [9,10-PHENANTHRENEQUINONE], in the test with Trichoplusia ni [1], the mortality at 10 µg/mL is 10%. Moreover, the FDI with Trichoplusia ni [3] was -15.4%.
For `O=C1c2cccc(O)c2C(=O)c2cccc(O)c21` [ANTHRARUFIN] the same measures were 15% and -58.6%.
With `O=C1C=CC(=O)C=C1` [BENZOQUINONE], the FDI in the test with Trichoplusia ni [3] is 17.8%.
As for `O=C1C(Cl)=C(Cl)C(=O)C(Cl)=C1Cl` [CHLORANIL], the mortality at 10 µg/mL in the test on Trichoplusia ni [1] was 10%. Besides, the FDI in the test with Trichoplusia ni [3] was 35.8%.
As for `O=C1c2cccc(O)c2C(=O)c2c(O)cccc21` [DANTHRON], the mortality at 10 µg/mL in the test with Trichoplusia ni [1] stood at 12%. Besides, the DC50 in the test on Trichoplusia ni [2] was 9.2 microg/cm2. Further, the FDI with Trichoplusia ni [3] is 86.2%.
Turning to `CC1=C(Br)C(=O)C(C(C)C)=C(Br)C1=O` [Dibromothymoquinone], in the test on Trichoplusia ni [1], the mortality at 10 µg/mL turned out to be 5%. The FDI in the test on Trichoplusia ni [3] worked out at 42.2%.
For `O=C1C(Cl)=C(Cl)C(=O)c2ccccc21` [Dichlon], in that order: 8% and 39.8%.
For `Cc1cc(O)c2c(c1)C(=O)c1cc(O)cc(O)c1C2=O` [EMODIN] the same measures were 10% and 22.1%.
Take `O=C1C=CC(=O)c2c(O)cccc21` [JUGLONE]: the Activity in the test on Trichoplusia ni [4] came to 1.7 cm2; with Trichoplusia ni [5], 8.1 mg. The mortality at 10 µg/mL in the test on Trichoplusia ni [1] stood at 5%. Moreover, the DC50 in the test with Trichoplusia ni [2] was found to be 2.1 microg/cm2. Besides, the FDI in the test with Trichoplusia ni [3] was 100%.
Take `CC(C)=CCC1=C(O)C(=O)c2ccccc2C1=O` [LAPACHOL]: the mortality at 10 µg/mL with Trichoplusia ni [1] is 10%. In addition, the FDI in the test on Trichoplusia ni [3] is 9.1%.
Consider `CC1=CC(=O)c2ccccc2C1=O` [MENADIONE], for which the mortality at 10 µg/mL in the test on Trichoplusia ni [1] is 13%. Besides, the DC50 in the test on Trichoplusia ni [2] is recorded as 6.3 microg/cm2. In addition, the FDI with Trichoplusia ni [3] amounted to 100%.
For `O=C1C=CC(=O)c2c(O)ccc(O)c21` [NAPHTHAZALIN] the same measures were 20%, 10.1 microg/cm2 and 100%.
As to `CC1=CC(=O)c2c(O)cccc2C1=O` [PLUMBAGIN], the figures for the Activity with Trichoplusia ni [4] and in the test on Trichoplusia ni [5] were 3.5 cm2 and 12.7 mg, respectively. Besides, the mortality at 10 µg/mL with Trichoplusia ni [1] turned out to be 7%. Besides, the DC50 with Trichoplusia ni [2] is given as 3.3 microg/cm2. Besides, in the test on Trichoplusia ni [3], the FDI amounted to 100%.
As for `CC1=CC(=O)C(C(C)C)=CC1=O` [THYMOQUINONE], the mortality at 10 µg/mL with Trichoplusia ni [1] was 26.7%. The DC50 in the test with Trichoplusia ni [2] was found to be 19.3 microg/cm2. For the same molecule, in the test on Trichoplusia ni [3], the FDI is reported as 100%.
For `COC1=C(OC)C(=O)C(C)=CC1=O` [Ubiquinone Qo], in that order: 23.3%, 4.2 microg/cm2 and 86.7%.

Source of the values: ChEMBL document CHEMBL3045949, “Antifeedant and toxic effects of naturally occurring and synthetic quinones to the cabbage looper, Trichoplusia ni” (Crop Prot, 2012).
